Assay results: ChEMBL document CHEMBL5604063, “ASAP - DENV-2 NS2B-NS3 protease fluorescence dose response” (2024)
“And” between values parts separate entries of the source, which are not always exact repeats. Equal entries are not always repeated.

Experiments:
[1] = target: T1, Genome polyprotein (dengue virus type 2, UniProt P29990); type: functional, Thailand/16681/1984
[2] = target: T1, Genome polyprotein; type: functional, Thailand/16681/1984; remark: listed apart in the source

T1 sequence (P29990 1346-1475 limits assumed): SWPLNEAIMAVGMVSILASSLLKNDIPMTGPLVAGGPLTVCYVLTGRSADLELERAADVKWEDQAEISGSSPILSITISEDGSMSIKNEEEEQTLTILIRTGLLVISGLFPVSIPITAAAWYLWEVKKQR
T1 sequence (P29990 1476-2093 limits assumed): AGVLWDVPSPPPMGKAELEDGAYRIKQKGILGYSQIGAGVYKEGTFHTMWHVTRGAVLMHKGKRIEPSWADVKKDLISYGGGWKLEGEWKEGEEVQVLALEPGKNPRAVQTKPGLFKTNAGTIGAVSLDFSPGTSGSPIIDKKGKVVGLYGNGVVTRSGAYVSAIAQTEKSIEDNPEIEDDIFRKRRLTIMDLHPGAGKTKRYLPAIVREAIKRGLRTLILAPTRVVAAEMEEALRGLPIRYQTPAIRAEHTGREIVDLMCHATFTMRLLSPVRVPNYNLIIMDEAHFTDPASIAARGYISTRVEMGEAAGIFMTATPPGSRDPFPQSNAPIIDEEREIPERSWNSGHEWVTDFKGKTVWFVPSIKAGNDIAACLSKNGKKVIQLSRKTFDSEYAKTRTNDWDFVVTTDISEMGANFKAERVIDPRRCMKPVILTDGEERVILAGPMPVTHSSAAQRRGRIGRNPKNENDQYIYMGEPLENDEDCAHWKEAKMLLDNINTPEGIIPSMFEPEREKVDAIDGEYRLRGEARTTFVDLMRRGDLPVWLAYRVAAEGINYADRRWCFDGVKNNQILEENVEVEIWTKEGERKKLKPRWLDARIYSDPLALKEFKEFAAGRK

Structure (SMILES) | IC50 [1] | IC50 [2] [µM]
C[C@H](CC(=O)O)N(C)C(=O)c1cc(Cl)cc(NC(=O)OCc2ccccc2)c1 | > 100 µM | > 99.5
Clc1ccc2[nH]cc(Cc3ccc(-c4nn[nH]n4)cc3)c2c1 | 16.4 µM | 58.7
C[C@H](CC(=O)O)NC(=O)c1cc(Cl)cc(NC(=O)OCc2ccccc2)c1 | > 100 µM | > 99.5
CCc1sc(C(=O)Nc2cccc(-c3nnn[nH]3)c2)cc1C | > 100 µM | > 99.5
O=C(O)CCc1ccc(NC(=O)c2cc(Cl)cc(C3CC3)c2)cc1 | > 100 µM | > 99.5
CC(C)C[C@H](NC(=O)c1cc(Cl)cc(NC(=O)OCc2ccccc2)c1)c1nnn[nH]1 | 28.3 µM | 74.6
O=C(Nc1cc(Cl)cc(C(=O)Nc2ccccc2[C@@H]2C[C@H]2C(=O)O)c1)OCc1ccccc1 | > 100 µM | > 99.5
NCc1cc(C(=O)N[C@H]2CCCOC2)cc([C@@H]2C[C@H]2c2cc(Cl)cc(NC(=O)OCc3ccccc3)c2)c1 | > 100 µM | > 99.5
O=C(Nc1cc(Cl)cc(C(=O)NC[C@H]2C[C@@H]2C(=O)O)c1)OCc1ccccc1 | > 100 µM | > 99.5
O=C(Nc1cc(Cl)cc(C(=O)NCc2ccc(-c3nnn[nH]3)cc2)c1)OCc1ccccc1 | 11.7 µM and 9.92 µM | 21
CC(C)(C)NC(=O)[C@H](Nc1cccc(-c2nn[nH]n2)c1)c1cc(Cl)cc(NC(=O)OCc2ccccc2)c1 | 7.15 µM and 7.59 µM | 11.3
O=C(Nc1cc(Cl)cc(C(=O)N2CCC[C@H]2c2nnn[nH]2)c1)OCc1ccccc1 | > 100 µM | > 99.5
C=CC[C@H](Nc1ccc(-c2nn[nH]n2)cc1)c1cc(Cl)cc(NC(=O)OCc2ccccc2)c1 | 5.41 µM and 5.49 µM | 6.6
NCc1cc(C(=O)N2CCNC(=O)C2)cc([C@@H]2C[C@H]2c2cc(Cl)cc(NC(=O)OCc3ccccc3)c2)c1 | > 100 µM | 49.1
O=C(O)c1cccc(NC(=O)c2cc(Cl)cc3[nH]ncc23)c1 | > 100 µM | > 99.5
O=C(Nc1cc(Cl)cc([C@H]2CN(Cc3ccccc3)C[C@@H]2c2cccc(-c3nn[nH]n3)c2)c1)OCc1ccccc1 | 5.87 µM and 5.96 µM | 6.12
CCCNC(=O)[C@H](Nc1cccc(-c2nn[nH]n2)c1)c1cc(Cl)cc(NC(=O)OCc2ccccc2)c1 | 9.41 µM and 9.81 µM | 17.3
CC(C)NC(=O)[C@H](Nc1cccc(-c2nn[nH]n2)c1)c1cc(Cl)cc(NC(=O)OCc2ccccc2)c1 | 12.2 µM | 21.5
O=C(Nc1cc(Cl)cc(C(=O)N2CCC(c3nn[nH]n3)CC2)c1)OCc1ccccc1 | > 100 µM | > 99.5
CCc1[nH]c(-c2ccccc2)cc1C(=O)Nc1cccc(-c2nnn[nH]2)c1 | 33.1 µM | > 99.5
CN(C)C(=O)c1cc(CN)cc([C@@H]2C[C@H]2c2cc(Cl)cc(NC(=O)OCc3ccccc3)c2)c1 | > 100 µM | 31.6
CS(=O)(=O)NC(=O)c1cc(CN)cc(NC(=O)c2cc(Cl)cc(NC(=O)OCc3ccccc3)c2)c1 | > 100 µM | > 99.5
CC(=Cc1cc(Cl)cc(NC(=O)OCc2ccccc2)c1)c1cccc(CN)c1 | > 100 µM | 23.4
C#C[C@H](Nc1cccc(C(=O)O)c1)c1cc(Cl)cc2[nH]ncc12 | > 100 µM | > 99.5
C[C@H](NC(=O)c1cc(Cl)cc(NC(=O)OCc2ccccc2)c1)C(=O)O | > 100 µM | > 99.5

Structure (SMILES) | IC50 [1] | IC50 [2] [µM]
Cc1c(C(=O)Nc2cccc(-c3nnn[nH]3)c2)n[nH]c1-c1ccc(Cl)cc1 | 18.2 µM | 42
COC[C@H](NC(=O)c1cc(Cl)cc(NC(=O)OCc2ccccc2)c1)c1nnn[nH]1 | > 100 µM | > 99.5
CC(C)[C@H](NC(=O)c1cc(Cl)cc(NC(=O)OCc2ccccc2)c1)C(=O)O | > 100 µM | > 99.5
CNC(=O)[C@H](Nc1ccc(-c2nnn[nH]2)cc1)c1cc(Cl)cc(C2CC2)c1 | > 100 µM | > 99.5
O=C(Nc1cc(Cl)cc(C(=O)N2CCC[C@H](c3nnn[nH]3)C2)c1)OCc1ccccc1 | > 100 µM | > 99.5
O=C(Nc1cc(Cl)cc([C@H](Nc2cccc(-c3nn[nH]n3)c2)C(=O)NCc2ccccc2)c1)OCc1ccccc1 | 7.11 µM and 6.42 µM | 8.05
C=CC[C@H](Nc1cc(Cl)cc(NC(=O)OCc2ccccc2)c1)c1cccc(CN)c1 | > 100 µM | 37.5
O=C(Nc1cccc(-c2nnn[nH]2)c1)c1ccc(-c2cccnc2)s1 | > 100 µM | > 99.5
CCOC(=O)[C@H]1[C@H](c2cc(Cl)cc(NC(=O)OCc3ccccc3)c2)[C@H]1c1cccc(-c2nnn[nH]2)c1 | 13.9 µM | 13.1
O=C(Nc1cc(Cl)cc(C(=O)Nc2cccc3c2OC[C@H](C(=O)O)C3)c1)OCc1ccccc1 | 19.1 µM | 50.4
NCc1cc(C(=O)N2CCOCC2)cc([C@@H]2C[C@H]2c2cc(Cl)cc(NC(=O)OCc3ccccc3)c2)c1 | > 100 µM | 44.5
NCc1cc(/C=C/C(=O)O)cc(NC(=O)c2cc(Cl)cc(NC(=O)OCc3ccccc3)c2)c1 | > 100 µM | 94.6
CCOC(=O)[C@H]1[C@H](c2cccc(CN)c2)[C@H]1c1cc(Cl)cc(NC(=O)OCc2ccccc2)c1 | > 100 µM | > 99.5
C=CC[C@H](Nc1cccc(C(=O)O)c1)c1cc(Cl)cc2[nH]ncc12 | > 100 µM | > 99.5
Clc1ccc2[nH]cc(Cc3cccc(-c4nn[nH]n4)c3)c2c1 | 22.4 µM | 63.1
C=CC[C@H](Nc1cc(Cl)cc(NC(=O)OCc2ccccc2)c1)c1ccc(-c2nn[nH]n2)cc1 | 5.69 µM and 5.81 µM | 7.02
CC(C)CNC(=O)[C@H](Nc1cccc(-c2nn[nH]n2)c1)c1cc(Cl)cc(NC(=O)OCc2ccccc2)c1 | 9.91 µM and 9.02 µM | 12.7
O=C(Nc1cc(Cl)cc([C@H](Nc2cccc(-c3nn[nH]n3)c2)C(=O)N[C@H]2CCOC2)c1)OCc1ccccc1 | 22.9 µM | 40.3
CCCn1cc(-c2cc(Cl)cc(NC(=O)OCc3ccccc3)c2)c(C(=O)O)n1 | > 100 µM | > 99.5
O=C(Nc1cccc(-n2nn[nH]c2=O)c1)c1cc(Cl)cc(C2CC2)c1 | 50.1 µM | 98.7
O=C(Nc1cc(Cl)cc([C@H](Nc2cccc(-c3nn[nH]n3)c2)C(=O)NC[C@H]2CCCO2)c1)OCc1ccccc1 | 17.6 µM | 33.7
NCc1cc(CO)cc([C@H]2C[C@@H]2c2cc(Cl)cc(NC(=O)OCc3ccccc3)c2)c1 | > 100 µM | 29.7
O=C(Nc1cc(Cl)cc(C(=O)N2CCC(C(=O)O)CC2)c1)OCc1ccccc1 | > 100 µM | > 99.5
O=C(Nc1cc(Cl)cc(-c2ccn3c(C(=O)O)cnc3c2)c1)OCc1ccccc1 | 13.6 µM | > 99.5
O=C(Nc1cc(Cl)cc(-c2ccc3[nH]nc(C(=O)O)c3c2)c1)OCc1ccccc1 | 6.27 µM and 5 µM | 9.15

Structure (SMILES) | IC50 [1] | IC50 [2] [µM]
O=C(Nc1cc(Cl)cc(CNc2cccc(-c3nn[nH]n3)c2)c1)OCc1ccccc1 | 8.36 µM and 5.15 µM | 11.6
OCC#C[C@H](Nc1ccc(-c2nnn[nH]2)cc1)c1cc(Cl)cc(C2CC2)c1 | 40.8 µM | > 99.5
O=C(Nc1cc(Cl)cc(-c2ccc3cc(C(=O)O)[nH]c3c2)c1)OCc1ccccc1 | 7.4 µM and 4.18 µM | 7.42
O=C(Nc1cc(Cl)cc(-c2ccc3nc(C(=O)O)ncc3c2)c1)OCc1ccccc1 | 11.6 µM and 12.4 µM | 11.4
NCc1ccc(C(=O)O)c(NC(=O)c2cc(Cl)cc(NC(=O)OCc3ccccc3)c2)c1 | > 100 µM | > 99.5
CC(C)CNC(=O)[C@H](Nc1cccc(-c2nnn[nH]2)c1)c1cc(Cl)cc(C2CC2)c1 | 47.3 µM | 74.4
O=C(Nc1cc(Cl)cc(C(=O)N2CCC[C@H]2C(=O)O)c1)OCc1ccccc1 | > 100 µM | > 99.5
O=C(Nc1cc(Cl)cc(C(=O)NC2(c3nnn[nH]3)CC2)c1)OCc1ccccc1 | > 100 µM | > 99.5
CC(=Cc1cccc(CN)c1)c1cc(Cl)cc(NC(=O)OCc2ccccc2)c1 | > 100 µM | 63.2
O=C(Nc1cc(Cl)cc([C@H]2Nc3ccc(-c4nn[nH]n4)cc3[C@H]3OCCC[C@@H]23)c1)OCc1ccccc1 | > 100 µM | > 99.5
O=C(Nc1cc(Cl)cc(-c2cnn3ccc(C(=O)O)cc23)c1)OCc1ccccc1 | > 100 µM | > 99.5
Clc1cccc([C@H](C#Cc2ccccc2)Nc2cccc(-c3nn[nH]n3)c2)c1 | 6.31 µM and 4.12 µM | 7.71
O=C(Nc1cc(Cl)cc(C(=O)Nc2cc(C(=O)O)ccn2)c1)OCc1ccccc1 | 35.6 µM | > 99.5
CNC(=O)[C@H](Nc1cc(Cl)cc(NC(=O)OCc2ccccc2)c1)c1ccc(-c2nn[nH]n2)cc1 | 19.2 µM | 45.6
COCCNC(=O)[C@H](Nc1cccc(-c2nn[nH]n2)c1)c1cc(Cl)cc(NC(=O)OCc2ccccc2)c1 | 28 µM | 59.8
CC(=Cc1cccc(-c2nnn[nH]2)c1)c1cc(Cl)cc(NC(=O)OCc2ccccc2)c1 | 8.82 µM and 11.8 µM | 9.44
O=C(O)C[C@H]1CCCN1C(=O)c1cc(Cl)cc(NC(=O)OCc2ccccc2)c1 | > 100 µM | > 99.5
O=C(Nc1cc(Cl)cc(-c2cccc3c(C(=O)O)cccc23)c1)OCc1ccccc1 | 7.51 µM | 9.78
NCc1cc(Br)cc([C@H]2C[C@@H]2c2cc(Cl)cc(NC(=O)OCc3ccccc3)c2)c1 | 33.5 µM | 16.1
C[C@H](C(=O)O)N(C)C(=O)c1cc(Cl)cc(NC(=O)OCc2ccccc2)c1 | > 100 µM | > 99.5
CNC(=O)[C@H](Nc1cccc(-c2nnn[nH]2)c1)c1cc(Cl)cc(C2CC2)c1 | > 100 µM | > 99.5
O=C(Nc1cc(Cl)cc(N[C@H](C#CCO)c2ccc(-c3nn[nH]n3)cc2)c1)OCc1ccccc1 | 11.7 µM | 26.4
CN(C)C(=O)Nc1cccc([C@@H]2C[C@H]2c2cc(Cl)cc(NC(=O)OCc3ccccc3)c2)c1 | > 100 µM | > 99.5
CNC(=O)[C@H](Nc1ccc(-c2nn[nH]n2)cc1)c1cc(Cl)cc(NC(=O)OCc2ccccc2)c1 | 40.7 µM | 50
